Columns and labels:
[1] = Cytotoxicity against human L02 cells assessed as cell growth inhibition at 100 uM after 48 hrs by MTT assay; type: toxicity, cell-based; conditions: read-out: GI
[2] = Cytotoxicity against human Bel7402 cells assessed as cell growth inhibition at 100 uM after 48 hrs by MTT assay; type: functional; conditions: Bel-7402, 48 h, read-out: GI
[3] = Cytotoxicity against human L02 cells assessed as cell growth inhibition after 48 hrs by MTT assay; type: toxicity, cell-based
[4] = Cytotoxicity against human Bel7402 cells assessed as cell growth inhibition after 48 hrs by MTT assay; type: functional, cell-based; conditions: Bel-7402, 48 h
[5] = Cytotoxicity against human HCT116 cells assessed as cell growth inhibition after 48 hrs by MTT assay; type: functional, cell-based; conditions: HCT-116, 48 h
[6] = Cytotoxicity against human HCT116 cells assessed as cell growth inhibition at 100 uM after 48 hrs by MTT assay; type: functional; conditions: HCT-116, 48 h, read-out: GI
[7] = Cytotoxicity against human HeLa cells assessed as cell growth inhibition after 48 hrs by MTT assay; type: functional, cell-based
[8] = Cytotoxicity against human HeLa cells assessed as cell growth inhibition at 100 uM after 48 hrs by MTT assay; type: functional; conditions: read-out: GI
Bel-7402 = assay: Selectivity index, ratio of IC50 for human L02 cells to IC50 for human Bel7402 cells; type: functional
HCT-116 = assay: Selectivity index, ratio of IC50 for human L02 cells to IC50 for human HCT116 cells; type: functional
HeLa = assay: Selectivity index, ratio of IC50 for human L02 cells to IC50 for human HeLa cells; type: functional
[9] = Cell cycle arrest in human HeLa cells assessed as accumulation at S phase at 0.1 to 1 uM after 24 hrs by propidium iodide-based FACS analysis (reference value: 31.26%); type: functional
[10] = Cell cycle arrest in human HeLa cells assessed as accumulation at G2/M phase at 0.1 to 1 uM after 24 hrs by propidium iodide-based FACS analysis (reference value: 7.12%); type: functional
[11] = Cell cycle arrest in human HeLa cells assessed as accumulation at G0/G1 phase at 0.1 to 1 uM after 24 hrs by propidium iodide-based FACS analysis (reference value: 61.71%); type: functional

SMILES	inhibition at 48 h, 100 µM [1] [%]	inhibition of growth at 100 µM [2] [%]	IC50 at 48 h [3] [µM]	IC50 [4] [µM]	IC50 [5] [µM]	inhibition of growth at 100 µM [6] [%]	IC50 [7] [µM]	inhibition of growth at 100 µM [8] [%]	Ratio IC50 (Bel-7402)	Ratio IC50 (HCT-116)	Ratio IC50 (HeLa)	Activity [9] [%]	Activity [10] [%]	Activity [11] [%]
COc1cc(OC)cc(/C(C#N)=C/c2cccc(C(F)(F)F)c2)c1	29.4	20	> 100	> 100	> 100	28.7	> 100	18.3						
COc1cc(OC)cc(/C(C#N)=C/c2ccccn2)c1			75.5	80.5	5.15		56		0.94	14.66				
CCCOc1ccc(/C=C(\C#N)c2cc(OC)cc(OC)c2)cc1	34.4		> 100	42	14.2		> 100	27.6	>2.38	>7.06				
CCOc1cccc(/C=C(\C#N)c2cc(OC)cc(OC)c2)c1	18.5	5.1	> 100	> 100	> 100	38.8	> 100	8.9						
CCCCOc1ccc(/C=C(\C#N)c2cc(OC)cc(OC)c2)cc1	35.7	15.4	> 100	> 100	> 100	45	> 100	18.6						
COc1cc(OC)cc(/C(C#N)=C/c2cccc3ccccc23)c1			73.6	26.4	20.4		> 100	44.9	2.78	3.59				
COc1cc(OC)cc(/C(C#N)=C/c2cccc(F)c2)c1	96		96	61.3	38		> 100	41.7	>1.63	>2.63				
COc1cc(OC)cc(/C(C#N)=C/c2ccc(C(F)(F)F)cc2)c1	22.9		> 100	27.6	21.8		> 100	48.2	>3.62	>4.58				
COc1cc(OC)cc(/C(C#N)=C/c2ccccc2C(F)(F)F)c1	33.6	11.4	> 100	> 100	> 100	26.6	> 100	4.9						
COc1cc(OC)cc(/C(C#N)=C/c2ccc(F)cc2)c1	2.5	9.3	> 100	> 100	> 100	27.8	> 100	45.8						
CCc1ccc(/C=C(\C#N)c2cc(OC)cc(OC)c2)cc1	32.8		> 100	0.35	1.3		> 100	40.6	>285.71	>76.92				
COc1cc(OC)cc(/C(C#N)=C/c2ccc(OCC(C)C)cc2)c1	13.6	7.6	> 100	> 100	> 100	32.3	> 100	22.4						
COc1cc(OC)cc(/C(C#N)=C/c2cccs2)c1	41.7		> 100	36.7	31.6		> 100	42.2	>2.73	>3.16				
COc1cc(OC)cc(/C(C#N)=C/c2ccccc2Br)c1	8.2	17.4	> 100	> 100	8.44		> 100	37.2		>11.84				
COc1cc(OC)cc(/C(C#N)=C/c2ccccc2F)c1	34.6		> 100	72.6	12.2		> 100	44.4	>1.38	>8.19				
COc1cc(OC)cc(/C(C#N)=C/c2ccc(Br)cc2)c1	36	31.6	> 100	> 100	11.4		4.2			>8.79	>23.81	30.1	69.9	0.7
COc1cc(OC)cc(/C(C#N)=C/c2cc(OC)c(OC)c(OC)c2)c1	11.6	22.3	> 100	> 100	> 100	24.1	> 100	24.9						
COc1cc(OC)cc(/C(C#N)=C/c2c(C)cc(C)cc2C)c1	28.1	13.4	> 100	> 100	> 100	28.9	> 100	2.7						
COc1cc(OC)cc(/C(C#N)=C/c2ccc(OCc3ccccc3)cc2)c1	32.7	18.6	> 100	> 100	> 100	18.7	> 100	20.7						
CCOc1ccc(/C=C(\C#N)c2cc(OC)cc(OC)c2)cc1	34.7		> 100	0.66	0.13		7.77		>151.52	>769.23	>12.87	47.6	51.6	0.74
COc1cc(OC)cc(/C(C#N)=C/c2ccco2)c1	38.5		> 100	75.7	3.31		112		>1.32	>30.21				
COc1cc(OC)cc(/C(C#N)=C/c2c(F)cccc2Cl)c1	41.8	11.1	> 100	> 100	> 100	32.9	> 100	35.9						
COc1cccc(/C=C(\C#N)c2cc(OC)cc(OC)c2)c1	19.5	12.4	> 100	> 100	> 100	41.1	> 100	36.4						
COc1cc(OC)cc(/C(C#N)=C/c2ccc(Cl)cc2)c1	33.6		> 100	8.04	43.3		15.9		>12.43	>2.31				
COc1cc(OC)cc(/C(C#N)=C/c2ccc(N(C)C)cc2)c1	26.8		> 100	1.74	0.59		> 100	44.4	>57.47	>169.49				
COc1cc(OC)cc(/C(C#N)=C/c2cccc(Br)c2)c1	43.2	19.8	> 100	> 100	> 100	38.2	> 100	40.2						
COc1cc(OC)cc(/C(C#N)=C/c2ccc(C)cc2)c1	23.1		> 100	0.59	2		> 100	38.6	>169.49	>50				
CCCOc1ccccc1/C=C(\C#N)c1cc(OC)cc(OC)c1	6.4	4.9	> 100	> 100	> 100	27.7	> 100							
COc1cc(OC)cc(/C(C#N)=C/c2ccccc2Cl)c1	11.8		> 100	28.5	8.64		28.2		>3.51	>11.57				
COc1cc(OC)cc(/C(C#N)=C/c2ccccc2)c1	36.4	34.8	> 100	> 100	> 100	27.1	> 100	28						

Source: ChEMBL document CHEMBL3872241, “Synthesis and bioactivity evaluation of 2,3-diaryl acrylonitrile derivatives as potential anticancer agents” (Bioorg Med Chem Lett, 2017)
